PubChem BioAssay (NCI)
Where “and” joins values, the source holds several entries; their conditions need not be identical. Identical values can stand only once.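 Step 1: Grow cells in 96-well plates. Step 2: Expose to compound for 48 hours at 5 concentrations. Step 3: Interpolate endpoints linearly; if unreached, use highest concentration. GI50 marks 50% less growth. TGI denotes the concentration required for complete inhibition of growth.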

What was measured:
Experiment in all cases: NCI tumour cell line growth inhibition, 48 h
[1] = test system: SF-539 CNS
[2] = test system: TK-10 renal
[3] = test system: U251 CNS
[4] = test system: SW-620 colon
[5] = test system: NCI-H23 lung
[6] = test system: HCT-116 colon
[7] = test system: NCI-H522 lung
[8] = test system: SNB-75 CNS
[9] = test system: SF-295 CNS
[10] = test system: SK-OV-3 ovarian

Structure (SMILES) | TGI [1] | TGI [2] [µM] | TGI [3] | TGI [4] | TGI [5] | TGI [6] | TGI [7] [µM] | TGI [8] | TGI [9] | TGI [10] | GI50 [1] [µM] | GI50 [2] [µM] | GI50 [3] [µM] | GI50 [4] [µM] | GI50 [5] [µM] | GI50 [6] [µM] | GI50 [7] [µM] | GI50 [9] [µM] | GI50 [10] [µM] | GI50 [8] [µM]
CC(=O)OC(/C=C1/C=CC(=O)O1)COC(=O)c1ccccc1 (centres undefined) | > 31.2 µM | > 31.2 | > 31.2 µM | > 31.2 µM | > 31.2 µM | > 31.2 µM | > 31.2 | > 31.2 µM | > 31.2 µM | > 31.2 µM |  |  |  |  |  |  |  |  |  | 
CCC(C)(C)C(=O)O[C@H]1C[C@@H](C)C=C2C=C[C@H](C)[C@H](CC[C@@H]3C[C@@H](O)CC(=O)O3)[C@H]21 | 24.8 µM and > 30 µM | 18.2 | 5.44 µM and > 30 µM | 16.6 µM and > 30 µM | 15.3 µM and 3.55 µM | 5.43 µM and 6.98 µM | 5.26 | 5.37 µM and > 30 µM | 8.03 µM and 2.61 µM | 21 µM and > 30 µM | 11.3 | 5.38 | 0.371 | 3.58 | 1.79 | 1.25 | 0.826 | 0.434 | 7.56 | 
O=C1NN(c2ccc(C(=O)O)cc2)C(=O)/C1=C\c1ccc([N+](=O)[O-])o1 | > 100 µM | 66.8 | > 100 µM | 47.3 µM | > 100 µM | 42.8 µM | 32.8 | > 100 µM | > 100 µM | > 100 µM | > 100 | 25.5 | 79.9 | 20 | 75.1 | 20.8 | 15.7 | > 100 | > 100 | > 100
[O-]c1c2c(nn1-c1ccccc1)c1ccccc1c[n+]2Cc1ccccc1 | > 100 µM | > 100 | > 100 µM | > 100 µM | > 100 µM | > 100 µM | > 100 | > 100 µM | > 100 µM | > 100 µM |  |  |  |  |  |  |  |  |  | 
Oc1ccc2cc(Br)ccc2c1-c1c(O)ccc2cc(Br)ccc12 | 12 µM | 5.86 | 12.9 µM | 7.41 µM | 5.82 µM | 4.01 µM | 4.53 | 13.9 µM | 6.79 µM | 17.3 µM | 3.34 | 2.52 | 3.93 | 2.64 | 2.23 | 1.95 | 1.98 | 2.46 | 4.72 | 3.15
COc1cc(/C=C2/C(=O)N(C(=O)OC(C)C)C(Cc3cc(OC)c(OC)c(C)c3OC)C(=O)N2Cc2ccccc2)c(OC)c(C)c1OC (centres undefined) | > 100 µM | > 100 | > 100 µM | > 100 µM | > 100 µM | > 100 µM | 32 | > 100 µM | > 100 µM | > 100 µM |  |  |  |  |  |  |  |  |  | 
Cc1nn(-c2nc3ccccc3s2)c(C)c1Oc1ccccc1O | 20.1 µM | 31.9 | 16.3 µM | 17.6 µM | 26.3 µM | 15.5 µM | 28.9 | 24.3 µM | 17.2 µM | 24.8 µM | 2.52 | 13.9 | 1.39 | 4.79 | 12.3 | 2.03 | 5.4 | 3.2 | 7.57 | 1.73
CC1=CC(=NC(=O)CBr)C=C/C1=N\S(=O)(=O)c1ccccc1 | 12 µM | 7.04 | 12.2 µM | 10.1 µM | 5.99 µM | 4.97 µM | 3.72 | 30.4 µM | 33.1 µM | 27.7 µM | 3.49 | 2.85 | 3.37 | 3.03 | 2.36 | 2.05 | 1.61 | 15.8 | 14.2 | 13.5
CCC[CH2][Sn]1([CH2]CCC)[O]C(=O)c2cc(I)cc(I)c2[O]1 | 2.44 µM | 2.52 | 2.1 µM | 1.57 µM | 2.9 µM | 2.72 µM | 0.323 | 2.25 µM | 3.53 µM | 4.65 µM | 1.16 | 1.25 | 0.882 | 0.367 | 1.18 | 1.42 | 0.143 | 1.91 | 2.09 | 1.04
CCOc1c(Br)cc(C2C(C(=O)OC)=CN(C)C=C2C(=O)OC)cc1OC | > 100 µM | > 100 | > 100 µM | > 100 µM | > 100 µM | > 100 µM | > 100 | > 100 µM | > 100 µM | > 100 µM | > 100 | > 100 | 42.6 | 38.6 | 84.9 | 48.3 | 39.7 | 57.9 | > 100 | 26.1
C[n+]1c(/C=C\c2ccc(Cl)cc2)ccc2ccccc21 | 92.2 µM | > 100 | > 100 µM | 63.4 µM | > 100 µM | > 100 µM | 89.4 | > 100 µM | > 100 µM | > 100 µM | 15.9 | > 100 | 3.7 | 4.1 | 31 | 12.6 | 12.4 | 13.8 | 46.6 | 23.2
O=S(=O)(/C=C/c1ccc(Cl)cc1Cl)Cc1ccccc1CS(=O)(=O)/C=C/c1ccc(Cl)cc1Cl | > 100 µM | > 100 | > 100 µM | > 100 µM | > 100 µM | > 100 µM | > 100 | > 100 µM | > 100 µM | > 100 µM |  |  |  |  |  |  |  |  |  | 
CCOC12OC3=C(CC1CC1=C(CCC1=O)O2)C(=O)CC3 (centres undefined) | > 100 µM | > 100 | > 100 µM | > 100 µM | > 100 µM | > 100 µM | > 100 | > 100 µM | > 100 µM | > 100 µM |  |  |  |  |  |  |  |  |  | 
Cn1cncc1[C@@](N)(c1ccc(Cl)cc1)c1ccc2c(c1)c(-c1cccc(Cl)c1)cc(=O)n2C | 9.47 µM | 10.8 | 7.49 µM | 12.7 µM | 14.4 µM | 7.57 µM | 5.05 | 18.9 µM | 6.35 µM | 21.2 µM | 2.81 | 2.57 | 1.4 | 1.82 | 2.64 | 1.48 | 0.655 | 0.534 | 7.24 | 4.68
